Molecules are shown by their SMILES.

The test concerns the target T1, human DGAT1 enzyme (Homo sapiens, UniProt O75907).
T1 construct: made in house; host or cells: Sf9 insect cells (microsomal membranes)
T1 sequence (O75907 1-488): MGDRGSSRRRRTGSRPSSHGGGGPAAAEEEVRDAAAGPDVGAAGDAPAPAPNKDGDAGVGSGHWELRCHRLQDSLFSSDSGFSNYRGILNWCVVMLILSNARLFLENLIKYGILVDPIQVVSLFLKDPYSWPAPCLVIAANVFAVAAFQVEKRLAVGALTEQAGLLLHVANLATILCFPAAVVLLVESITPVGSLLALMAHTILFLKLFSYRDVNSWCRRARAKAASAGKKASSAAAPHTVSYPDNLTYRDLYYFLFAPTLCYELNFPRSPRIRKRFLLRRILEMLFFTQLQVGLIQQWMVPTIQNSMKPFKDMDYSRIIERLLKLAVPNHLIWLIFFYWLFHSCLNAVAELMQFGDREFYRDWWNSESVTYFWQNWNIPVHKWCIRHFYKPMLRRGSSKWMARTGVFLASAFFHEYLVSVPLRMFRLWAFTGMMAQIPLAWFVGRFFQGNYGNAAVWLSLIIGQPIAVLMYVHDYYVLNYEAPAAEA
In words: in vitro DGAT1 inhibition assay (microsomes, [14C]-palmitoyl-CoA, SPA beads). The test is classed as biochemical. Conditions: human DGAT1 expressed in Sf9 insect cells, microsomes; 2 hours at room temperature; read-out: IC50. On the procedure: The in vitro assay to identify DGAT1 inhibitors uses human DGAT1 enzyme expressed in Sf9 insect cells prepared as microsomes. The reaction was initiated by the addition of the combined substrates 1,2-dioleoyl-sn-glycerol and [^14C]-palmitoyl-Co A and incubated with test compounds and microsomal membranes for 2 hours at room temperature. The assay was stopped by adding 0.5 mg wheat germ agglutinin beads in assay buffer with 1% Brij-35 and 1% 3-cholamidopropyldimethyl-ammonio-1-propane sulfonate. Plates were sealed with TopSeal and incubated for 18 hours to allow the radioactive triglyceride product to come into proximity with the bead. Plates were read on a TopCount instrument.
Percent inhibition was calculated as the percent of (test compound inhibition minus non-specific binding) relative to (total binding minus non-specific binding). IC50 values were determined by curve fitting the data to a Sigmoidal dose-response in GraphPad Prism utilizing the following equation:
Y=A+(B−A)/(1+10̂((Log IC50−X))),
where A and B are the bottom and top of the curve (highest and lowest inhibition), respectively, and X is the logarithm of concentration.
As to `COc1ccccc1-c1ccc2oc(C(=O)Nc3ccc(N4CCC(OCc5cccc(C(=O)O)c5)CC4)nc3)c(C)c2c1` [Example 73, 3-((1-(5-(5-(2-methoxyphenyl)-3-methylbenzofuran-2-carboxamido)pyridin-2-yl)piperidin-4-yloxy)methyl)benzoic acid], the IC50 worked out at 108 nM.

Turning to `COc1ccc(-c2ccc3oc(C(=O)Nc4ccc(N5CCC(OCc6cccc(C(=O)O)c6)CC5)nc4)c(C)c3c2)cc1` [Example 64, 3-((1-(5-(5-(4-methoxyphenyl)-3-methylbenzofuran-2-carboxamido)pyridin-2-yl)piperidin-4-yloxy)methyl)benzoic acid], the IC50 came to 65 nM.

In the case of `COc1ccccc1-c1ccc2oc(C(=O)Nc3ccc(N4CCN(C(=O)Nc5ccccc5F)CC4)nc3)c(C)c2c1` [Example 69, N-(2-fluorophenyl)4-(5-(5-(2-methoxyphenyl)-3-methylbenzofuran-2-carboxamido)pyridin-2-yl)piperazine-1-carboxamide], the IC50 was 204 nM.

As to `Cc1ccc(C(=O)O)cc1COC1CCN(c2ccc(NC(=O)c3oc4ccc(-c5ccccc5)cc4c3C)cn2)CC1` [Example 78, 4-methyl-3-((1-(5-(3-methyl-5-phenylbenzofuran-2-carboxamido)pyridin-2-yl)piperidin-4-yloxy)methyl)benzoic acid], the 50% inhibitory concentration (IC50) was 156 nM.

On to `Cc1c(C(=O)Nc2ccc(N3CCC(COc4cccc(C(=O)O)c4)CC3)nc2)oc2ccccc12` [Example 91, 3-((1-(5-(3-methylbenzofuran-2-carboxamido)pyridin-2-yl)piperidin-4-yl)methoxy)benzoic acid], for which the IC50 amounted to 84 nM.

In the case of `Cc1c(C(=O)Nc2ccc(N3CC[C@@H](COc4ccc(C(=O)O)cc4)C3)nc2)oc2ccc(-c3ccccc3)cc12` [Example 80, (R)-4-((1-(5-(3-methyl-5-phenylbenzofuran-2-carboxamido)pyridin-2-yl)pyrrolidin-3-yl)methoxy)benzoic acid], the IC50 came to 600 nM.

With `Cc1c(C(=O)Nc2ccc(-c3ccc(OCC(C)(C)C(=O)O)nc3)nc2)oc2ccc(-c3ccccc3)cc12` [Example 59, 2,2-dimethyl-3-(5-(3-methyl-5-phenylbenzofuran-2-carboxamido)-2,3′-bipyridin-6′-yloxy)propanoic acid], the concentration for half-maximal inhibition (IC50) was 9 nM.

Regarding `Cc1c(C(=O)Nc2ccc(N3CCN(C(=O)Nc4ccccc4C(=O)O)CC3)nc2)oc2ccc(-c3cccc(F)c3)cc12` [Example 31, 2-(4-(5-(5-(3-fluorophenyl)-3-methylbenzofuran-2-carboxamido)pyridin-2-yl)piperazine-1-carboxamido)benzoic acid], the IC50 came to 84 nM.

Consider `Cc1c(C(=O)Nc2ccc(N3CCN(C(=O)Nc4ccccc4F)CC3)nc2)sc2ccc(-c3ccccc3)cc12` [Example 46, N-(2-fluorophenyl)-4-(5-(3-methyl-5-phenylbenzo[b]thiophene-2-carboxamido)pyridin-2-yl)piperazine-1-carboxamide], for which the IC50 is 84 nM.

In the case of `Cc1c(C(=O)Nc2ccc(N3CCN(C(=O)[C@H](O)c4ccccc4)CC3)nc2)oc2ccccc12` [Example 2, (R)—N-(6-(4-(2-hydroxy-2-phenylacetyl)piperazin-1-yl)pyridin-3-yl)-3-methylbenzofuran-2-carboxamide], the IC50 came to 625 nM.

In the case of `O=C(Nc1ccc(N2CCN(C(=O)Nc3ccccc3F)CC2)nc1)c1csc2ccccc12` [Example 10, 4-(5-(benzo[b]thiophene-3-carboxamido)pyridin-2-yl)-N-(2-fluorophenyl)piperazine-1-carboxamide], the IC50 worked out at 37 nM.

In the case of `Cc1c(C(=O)Nc2ccc(N3CCN(C(=O)Nc4ccccc4C(=O)O)CC3)nc2)oc2ccc(-c3ccccc3F)cc12` [Example 24, 2-(4-(5-(5-(2-fluorophenyl)-3-methylbenzofuran-2-carboxamido)pyridin-2-yl)piperazine-1-carboxamido)benzoic acid], the IC50 is 59 nM.

In the case of `O=C(Nc1ccc(N2CCN(C(=O)Nc3ccccc3F)CC2)nc1)c1coc2ccccc12` [Example 11, 4-(5-(benzofuran-3-carboxamido)pyridin-2-yl)-N-(2-fluorophenyl)piperazine-1-carboxamide], the IC50 was found to be 95 nM.

As for `Cc1c(C(=O)Nc2ccc(-c3ccc(OC4CCC(C(=O)O)CC4)nc3)nc2)oc2ccc(-c3ccccc3)cc12` (centres unmarked) [Example 95, 4-(5-(3-methyl-5-phenylbenzofuran-2-carboxamido)-2,3′-bipyridin-6′-yloxy)cyclohexanecarboxylic acid], the IC50 amounted to 6 nM.

Usually IC50 stands for the concentration that inhibits the measured activity by half.

For the origin of these results see patent US20120172369A1 (priority 2009, published 2012).
